Assay results: ChEMBL document CHEMBL3046436, “Effects of 1,3-dichloropropene as a methyl bromide alternative for management of nematode, soil-borne disease, and weed in ginger (Zingiber officinale) crops in China” (2012)
The source made the active and inactive calls. The calls are words filed in the database; no cut-off is given here.

Assays:
Zingiber officinale [1] = assay: Increase in plant height of Zingiber officinale (ginger) plants at 90 L/ha applied through fumigation protocol (reference value: 79.6 cm); type: functional
Zingiber officinale [2] = assay: Increase in stem diameter of Zingiber officinale (ginger) plants at 90 L/ha applied through fumigation protocol (reference value: 11.3 mm); type: functional
Meloidogyne incognita [3] = assay: Nematicidal activity against Meloidogyne incognita (root-knot nematode) in ginger crop fields assessed as number of nematodes per 100 cm3 soil at 90 L/ha measured after 40 days post compound application (reference value: 75.3 nematodes in 100 cm3 soil); type: functional
Zingiber officinale [4] = assay: Increase in medium fruit yield in Zingiber officinale (ginger) plants at 120 L/ha applied through fumigation protocol (reference value: 24.6 ton/ha); type: functional
Meloidogyne incognita [5] = assay: Nematicidal activity against Meloidogyne incognita (root-knot nematode) in ginger crop fields assessed as root galling index at 90 L/ha measured after 60 days post compound application (reference value: 5.49 root galling index); type: functional
Zingiber officinale [6] = assay: Increase in marketable fruit yield in Zingiber officinale (ginger) plants at 120 L/ha applied through fumigation protocol (reference value: 48.2 ton/ha); type: functional
Ralstonia solanacearum [7] = assay: Antimicrobial activity against Ralstonia solanacearum in ginger plants fields assessed as reduction in ginger blast-induced plant mortality at 120 to 180 L/ha applied through fumigation protocol; type: functional, organism-based
Zingiber officinale [8] = assay: Increase in medium fruit yield in Zingiber officinale (ginger) plants at 180 L/ha applied through fumigation protocol (reference value: 24.6 ton/ha); type: functional
Zingiber officinale [9] = assay: Increase in extra-large fruit yield in Zingiber officinale (ginger) plants at 180 L/ha applied through fumigation protocol (reference value: 3.5 ton/ha); type: functional
Meloidogyne incognita [10] = assay: Nematicidal activity against Meloidogyne incognita (root-knot nematode) in ginger crop fields assessed as number of nematodes per 100 cm3 soil at 90 L/ha measured after 20 days post compound application (reference value: 56.7 nematodes in 100 cm3 soil); type: functional
Zingiber officinale [11] = assay: Increase in marketable fruit yield in Zingiber officinale (ginger) plants at 180 L/ha applied through fumigation protocol (reference value: 48.2 ton/ha); type: functional
Zingiber officinale [12] = assay: Increase in medium fruit yield in Zingiber officinale (ginger) plants at 90 L/ha applied through fumigation protocol (reference value: 24.6 ton/ha); type: functional
Meloidogyne incognita [13] = assay: Nematicidal activity against Meloidogyne incognita (root-knot nematode) in ginger crop fields assessed as number of nematodes per 100 cm3 soil at 180 L/ha measured after 60 days post compound application (reference value: 88.2 nematodes in 100 cm3 soil); type: functional
Meloidogyne incognita [14] = assay: Nematicidal activity against Meloidogyne incognita (root-knot nematode) in ginger crop fields assessed as number of nematodes per 100 cm3 soil at 180 L/ha measured after 20 days post compound application (reference value: 56.7 nematodes in 100 cm3 soil); type: functional
Meloidogyne incognita [15] = assay: Nematicidal activity against Meloidogyne incognita (root-knot nematode) in ginger crop fields assessed as number of nematodes per 100 cm3 soil at 90 L/ha measured after 60 days post compound application (reference value: 88.2 nematodes in 100 cm3 soil); type: functional
Stellaria media [16] = assay: Herbicidal activity against Stellaria media assessed as reduction in weed populations at 90 to 180 L/ha; type: functional, organism-based
Meloidogyne incognita [17] = assay: Nematicidal activity against Meloidogyne incognita (root-knot nematode) in ginger crop fields assessed as root galling index at 180 L/ha measured after 60 days post compound application (reference value: 5.49 root galling index); type: functional
Zingiber officinale [18] = assay: Increase in large fruit yield in Zingiber officinale (ginger) plants at 120 L/ha applied through fumigation protocol (reference value: 20.1 ton/ha); type: functional
Meloidogyne incognita [19] = assay: Nematicidal activity against Meloidogyne incognita (root-knot nematode) in ginger crop fields assessed as number of nematodes per 100 cm3 soil at 120 L/ha measured after 60 days post compound application (reference value: 88.2 nematodes in 100 cm3 soil); type: functional
Zingiber officinale [20] = assay: Increase in plant height of Zingiber officinale (ginger) plants at 180 L/ha applied through fumigation protocol (reference value: 79.6 cm); type: functional
Zingiber officinale [21] = assay: Increase in large fruit yield in Zingiber officinale (ginger) plants at 90 L/ha applied through fumigation protocol (reference value: 20.1 ton/ha); type: functional
Zingiber officinale [22] = assay: Increase in extra-large fruit yield in Zingiber officinale (ginger) plants at 90 L/ha applied through fumigation protocol (reference value: 3.5 ton/ha); type: functional
Digitaria sanguinalis [23] = assay: Herbicidal activity against Digitaria sanguinalis (hairy crabgrass) assessed as reduction in weed populations at 90 to 180 L/ha; type: functional, organism-based
Zingiber officinale [24] = assay: Increase in large fruit yield in Zingiber officinale (ginger) plants at 180 L/ha applied through fumigation protocol (reference value: 20.1 ton/ha); type: functional
Meloidogyne incognita [25] = assay: Nematicidal activity against Meloidogyne incognita (root-knot nematode) in ginger crop fields assessed as number of nematodes per 100 cm3 soil at 180 L/ha measured after 40 days post compound application (reference value: 75.3 nematodes in 100 cm3 soil); type: functional
Zingiber officinale [26] = assay: Increase in shoots number of Zingiber officinale (ginger) plants at 90 to 180 L/ha applied through fumigation protocol; type: functional, organism-based
Capsella bursa-pastoris [27] = assay: Herbicidal activity against Capsella bursa-pastoris assessed as reduction in weed populations at 90 to 180 L/ha; type: functional, organism-based
Meloidogyne incognita [28] = assay: Nematicidal activity against Meloidogyne incognita (root-knot nematode) in ginger crop fields assessed as root galling index at 120 L/ha measured after 60 days post compound application (reference value: 5.49 root galling index); type: functional
Meloidogyne incognita [29] = assay: Nematicidal activity against Meloidogyne incognita (root-knot nematode) in ginger crop fields assessed as number of nematodes per 100 cm3 soil at 120 L/ha measured after 20 days post compound application (reference value: 56.7 nematodes in 100 cm3 soil); type: functional
Zingiber officinale [30] = assay: Increase in leaves number of Zingiber officinale (ginger) plants at 90 to 180 L/ha applied through fumigation protocol; type: functional, organism-based
Zingiber officinale [31] = assay: Increase in stem diameter of Zingiber officinale (ginger) plants at 180 L/ha applied through fumigation protocol (reference value: 11.3 mm); type: functional
Zingiber officinale [32] = assay: Increase in stem diameter of Zingiber officinale (ginger) plants at 120 L/ha applied through fumigation protocol (reference value: 11.3 mm); type: functional
Meloidogyne incognita [33] = assay: Nematicidal activity against Meloidogyne incognita (root-knot nematode) in ginger crop fields assessed as number of nematodes per 100 cm3 soil at 120 L/ha measured after 40 days post compound application (reference value: 75.3 nematodes in 100 cm3 soil); type: functional
Zingiber officinale [34] = assay: Increase in marketable fruit yield in Zingiber officinale (ginger) plants at 90 L/ha applied through fumigation protocol (reference value: 48.2 ton/ha); type: functional
Zingiber officinale [35] = assay: Increase in plant height of Zingiber officinale (ginger) plants at 120 L/ha applied through fumigation protocol (reference value: 79.6 cm); type: functional
Zingiber officinale [36] = assay: Increase in large fruit yield in Zingiber officinale (ginger) plants at 400 kg/ha applied through fumigation protocol (reference value: 20.1 ton/ha); type: functional
Zingiber officinale [37] = assay: Increase in medium fruit yield in Zingiber officinale (ginger) plants at 400 kg/ha applied through fumigation protocol (reference value: 24.6 ton/ha); type: functional
Zingiber officinale [38] = assay: Increase in marketable fruit yield in Zingiber officinale (ginger) plants at 400 kg/ha applied through fumigation protocol (reference value: 48.2 ton/ha); type: functional
Meloidogyne incognita [39] = assay: Nematicidal activity against Meloidogyne incognita (root-knot nematode) in ginger crop fields assessed as number of nematodes per 100 cm3 soil at 400 kg/ha measured after 40 days post compound application (reference value: 75.3 nematodes in 100 cm3 soil); type: functional
Meloidogyne incognita [40] = assay: Nematicidal activity against Meloidogyne incognita (root-knot nematode) in ginger crop fields assessed as number of nematodes per 100 cm3 soil at 400 kg/ha measured after 60 days post compound application (reference value: 88.2 nematodes in 100 cm3 soil); type: functional
Meloidogyne incognita [41] = assay: Nematicidal activity against Meloidogyne incognita (root-knot nematode) in ginger crop fields assessed as root galling index at 400 kg/ha measured after 60 days post compound application (reference value: 5.49 root galling index); type: functional
Meloidogyne incognita [42] = assay: Nematicidal activity against Meloidogyne incognita (root-knot nematode) in ginger crop fields assessed as number of nematodes per 100 cm3 soil at 400 kg/ha measured after 20 days post compound application (reference value: 56.7 nematodes in 100 cm3 soil); type: functional
Stellaria media [43] = assay: Herbicidal activity against Stellaria media assessed as reduction in weed populations at 400 kg/ha; type: functional, organism-based
Capsella bursa-pastoris [44] = assay: Herbicidal activity against Capsella bursa-pastoris assessed as reduction in weed populations at 400 kg/ha; type: functional, organism-based
Zingiber officinale [45] = assay: Increase in extra-large fruit yield in Zingiber officinale (ginger) plants at 400 kg/ha applied through fumigation protocol (reference value: 3.5 ton/ha); type: functional
Zingiber officinale [46] = assay: Increase in stem diameter of Zingiber officinale (ginger) plants at 400 kg/ha applied through fumigation protocol (reference value: 11.3 mm); type: functional
Digitaria sanguinalis [47] = assay: Herbicidal activity against Digitaria sanguinalis (hairy crabgrass) assessed as reduction in weed populations at 400 kg/ha; type: functional, organism-based
Zingiber officinale [48] = assay: Increase in plant height of Zingiber officinale (ginger) plants at 400 kg/ha applied through fumigation protocol (reference value: 79.6 cm); type: functional
Ralstonia solanacearum [49] = assay: Antimicrobial activity against Ralstonia solanacearum in ginger plants fields assessed as reduction in ginger blast-induced plant mortality at 400 kg/ha applied through fumigation protocol; type: functional, organism-based

Cl/C=C/CCl [1,3-DICHLOROPROPENE]
Activity (Zingiber officinale [1]): 82.6 cm
Activity (Zingiber officinale [2]): 12.1 mm
Activity (Meloidogyne incognita [3]): 45.1 /10'2cm3
Crop_yield (Zingiber officinale [4]): 36.3 tons/ha
Root_galling_index (Meloidogyne incognita [5]): 3.66
Crop_yield (Zingiber officinale [6]): 71.1 tons/ha
Activity (Ralstonia solanacearum [7]): Active
Crop_yield (Zingiber officinale [8]): 38.2 tons/ha
Crop_yield (Zingiber officinale [9]): 8.1 tons/ha
Activity (Meloidogyne incognita [10]): 33.6 /10'2cm3
Crop_yield (Zingiber officinale [11]): 75.8 tons/ha
Crop_yield (Zingiber officinale [12]): 32.4 tons/ha
Activity (Meloidogyne incognita [13]): 36.9 /10'2cm3
Activity (Meloidogyne incognita [14]): 17.3 /10'2cm3
Activity (Meloidogyne incognita [15]): 58.5 /10'2cm3
Activity (Stellaria media [16]): inactive
Root_galling_index (Meloidogyne incognita [17]): 2.31
Crop_yield (Zingiber officinale [18]): 26.9 tons/ha
Activity (Meloidogyne incognita [19]): 45.5 /10'2cm3
Activity (Zingiber officinale [20]): 88.9 cm
Crop_yield (Zingiber officinale [21]): 24.9 tons/ha
Crop_yield (Zingiber officinale [22]): 7.4 tons/ha
Activity (Digitaria sanguinalis [23]): inactive
Crop_yield (Zingiber officinale [24]): 29.5 tons/ha
Activity (Meloidogyne incognita [25]): 27.3 /10'2cm3
Activity (Zingiber officinale [26]): Active
Activity (Capsella bursa-pastoris [27]): inactive
Root_galling_index (Meloidogyne incognita [28]): 3.34
Activity (Meloidogyne incognita [29]): 24.2 /10'2cm3
Activity (Zingiber officinale [30]): Active
Activity (Zingiber officinale [31]): 13.9 mm
Activity (Zingiber officinale [32]): 12.8 mm
Activity (Meloidogyne incognita [33]): 38.4 /10'2cm3
Crop_yield (Zingiber officinale [34]): 64.7 tons/ha
Activity (Zingiber officinale [35]): 85.4 cm

CBr [BROMOMETHANE]
Crop_yield (Zingiber officinale [36]): 28.7 tons/ha
Crop_yield (Zingiber officinale [37]): 39.1 tons/ha
Crop_yield (Zingiber officinale [38]): 76.4 tons/ha
Activity (Meloidogyne incognita [39]): 31.6 /10'2cm3
Activity (Meloidogyne incognita [40]): 47.4 /10'2cm3
Root_galling_index (Meloidogyne incognita [41]): 2.68
Activity (Meloidogyne incognita [42]): 22.3 /10'2cm3
Activity (Stellaria media [43]): Active
Activity (Capsella bursa-pastoris [44]): Active
Crop_yield (Zingiber officinale [45]): 8.6 tons/ha
Activity (Zingiber officinale [46]): 13.5 mm
Activity (Digitaria sanguinalis [47]): Active
Activity (Zingiber officinale [48]): 91.3 cm
Activity (Ralstonia solanacearum [49]): Active
